In US20180015051A1, “MODULATORS OF ALPHA-DICARBONYL DETOXIFICATION AND THEIR USE FOR THE TREATMENT OF DIABETIC PATHOLOGIES” (Buck Institute for Research on Aging, priority 2016, published 2018):

What was measured:
[1] = mice and humans; Gomes and Negrato (2014); cited from earlier work
[2] = test system: GLOD-4/GLO1; assay: Glod-4p::gfp expression assay; type: in vivo, Caenorhabditis elegans; details: EV, skn-1, or trpa-1 RNAi; MGO (7 mM) vs water
Method: Transgenic adult animals carrying glod-4p::gfp were assayed. Fluorescent intensity was calculated by background subtraction and quantified for the same region of interest across individual animals. All quantification was done using Image J™ software (//imagei.nih.gov/ii/).

[3] = molecular target: T1, TRPA1 (worm) (Caenorhabditis elegans, UniProt Q18297); assay: Calcium imaging of HEK293T cells (Rhod-3 AM), worm TRPA1; type: cell-based, C. elegans; details: HEK293T transfected with worm TRPA1 and GFP; 100 pM or 1 mM MGO
T1 construct: expressed in transfected cells; host or cells: HEK293T
T1 sequence (Q18297 1-1211): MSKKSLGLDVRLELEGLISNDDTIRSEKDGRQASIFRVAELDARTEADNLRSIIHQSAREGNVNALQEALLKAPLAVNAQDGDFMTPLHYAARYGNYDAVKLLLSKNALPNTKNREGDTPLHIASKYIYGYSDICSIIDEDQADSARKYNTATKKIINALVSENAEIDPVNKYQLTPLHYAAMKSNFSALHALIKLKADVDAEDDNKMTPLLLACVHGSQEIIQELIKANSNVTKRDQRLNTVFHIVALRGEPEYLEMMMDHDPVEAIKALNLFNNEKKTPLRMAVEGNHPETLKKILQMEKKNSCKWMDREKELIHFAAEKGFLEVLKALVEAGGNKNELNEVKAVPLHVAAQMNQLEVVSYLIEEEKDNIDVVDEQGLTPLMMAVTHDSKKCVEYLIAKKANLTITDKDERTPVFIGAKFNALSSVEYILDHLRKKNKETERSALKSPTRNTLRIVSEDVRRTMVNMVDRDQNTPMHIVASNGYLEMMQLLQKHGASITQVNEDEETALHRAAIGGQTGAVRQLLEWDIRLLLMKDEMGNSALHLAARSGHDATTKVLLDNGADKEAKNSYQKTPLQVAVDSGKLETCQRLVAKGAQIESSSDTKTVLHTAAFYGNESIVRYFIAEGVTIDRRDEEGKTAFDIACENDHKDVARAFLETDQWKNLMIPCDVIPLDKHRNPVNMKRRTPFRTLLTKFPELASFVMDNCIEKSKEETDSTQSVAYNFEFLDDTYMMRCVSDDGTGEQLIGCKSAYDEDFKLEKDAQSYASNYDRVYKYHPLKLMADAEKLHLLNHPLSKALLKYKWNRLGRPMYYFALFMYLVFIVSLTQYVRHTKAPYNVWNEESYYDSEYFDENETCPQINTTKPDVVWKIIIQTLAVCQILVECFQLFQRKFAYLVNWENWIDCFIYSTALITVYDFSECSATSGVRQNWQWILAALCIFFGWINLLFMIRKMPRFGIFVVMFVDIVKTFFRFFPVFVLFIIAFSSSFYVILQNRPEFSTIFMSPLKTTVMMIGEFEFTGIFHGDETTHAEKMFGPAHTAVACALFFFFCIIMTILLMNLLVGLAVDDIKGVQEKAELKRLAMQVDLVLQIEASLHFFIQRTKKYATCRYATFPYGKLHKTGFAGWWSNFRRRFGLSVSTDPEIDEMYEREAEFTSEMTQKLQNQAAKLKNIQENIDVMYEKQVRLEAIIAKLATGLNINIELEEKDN
Method: (§1) Appropriate HEK293T-derived cells were seeded on collagen-coated glass bottom culture dishes (MatTek Corporation). Cells were loaded with 10 pM of Rhod-3 AM (Life Technology) for 30 min at 37° C. After 30 min they were washed twice with standard Tyrode's solution (135 mM NaCl, 4 mM KCl, 10 mM glucose, 10 mM HEPES, 2 mM CaCl2, and 1 mM MgCl2 at pH=7.4) at room temperature. Calcium imaging was performed on an Olympus BX51WI Axiovert microscope under a 60× objective. Fluorescent images were documented upon sequential excitation with 555 nm followed by 484 nm with a Roper CoolSnap CCD camera. After establishing a baseline 555/484 ratio, methylglyoxal or other agonists were diluted with Tyrode's solution (100 pM or 1 mM final concentration) and were perfused into cells. Images were processed with the MetaFlour (Olympus) software.

[4] = test system: C. elegans; assay: Swim-bend assay (body bends in liquid media); type: in vivo, Caenorhabditis elegans; details: N2 animals; 7 mM MGO vs water
[5] = test system: native HEK293T cells; assay: Calcium imaging of native HEK293T cells (GFP only); type: cell-based
Method: as §1

[6] = test system: C. elegans; assay: Neuronal damage assay, pan-neuronal GFP reporter (unc-33p::gfp); type: in vivo, Caenorhabditis elegans
Method: Animals were paralyzed using freshly prepared 5 mM levamisole in M9 buffer and mounted on 2% agar pads under glass coverslips. […] Images were acquired under 40× objective. Neuronal deterioration was examined and characterized by loss of fluorescent intensity of nerve ring, neuronal waviness, and thinning and fragmentation of axons and neuronal commissures. Quantification and imaging of animals harboring damage was performed using the Image J™ software (//imagei.nih.gov/ii/).

[7] = molecular target: T2, TRPA1 (RAT) (Rattus norvegicus, UniProt Q6RI86); assay: Calcium imaging of HEK293T cells (Rhod-3 AM), rat TRPA1; type: cell-based; details: HEK293T transfected with rat TRPA1 and GFP; 100 pM or 1 mM MGO
T2 construct: expressed in transfected cells; host or cells: HEK293T
T2 sequence (Q6RI86 whole entry): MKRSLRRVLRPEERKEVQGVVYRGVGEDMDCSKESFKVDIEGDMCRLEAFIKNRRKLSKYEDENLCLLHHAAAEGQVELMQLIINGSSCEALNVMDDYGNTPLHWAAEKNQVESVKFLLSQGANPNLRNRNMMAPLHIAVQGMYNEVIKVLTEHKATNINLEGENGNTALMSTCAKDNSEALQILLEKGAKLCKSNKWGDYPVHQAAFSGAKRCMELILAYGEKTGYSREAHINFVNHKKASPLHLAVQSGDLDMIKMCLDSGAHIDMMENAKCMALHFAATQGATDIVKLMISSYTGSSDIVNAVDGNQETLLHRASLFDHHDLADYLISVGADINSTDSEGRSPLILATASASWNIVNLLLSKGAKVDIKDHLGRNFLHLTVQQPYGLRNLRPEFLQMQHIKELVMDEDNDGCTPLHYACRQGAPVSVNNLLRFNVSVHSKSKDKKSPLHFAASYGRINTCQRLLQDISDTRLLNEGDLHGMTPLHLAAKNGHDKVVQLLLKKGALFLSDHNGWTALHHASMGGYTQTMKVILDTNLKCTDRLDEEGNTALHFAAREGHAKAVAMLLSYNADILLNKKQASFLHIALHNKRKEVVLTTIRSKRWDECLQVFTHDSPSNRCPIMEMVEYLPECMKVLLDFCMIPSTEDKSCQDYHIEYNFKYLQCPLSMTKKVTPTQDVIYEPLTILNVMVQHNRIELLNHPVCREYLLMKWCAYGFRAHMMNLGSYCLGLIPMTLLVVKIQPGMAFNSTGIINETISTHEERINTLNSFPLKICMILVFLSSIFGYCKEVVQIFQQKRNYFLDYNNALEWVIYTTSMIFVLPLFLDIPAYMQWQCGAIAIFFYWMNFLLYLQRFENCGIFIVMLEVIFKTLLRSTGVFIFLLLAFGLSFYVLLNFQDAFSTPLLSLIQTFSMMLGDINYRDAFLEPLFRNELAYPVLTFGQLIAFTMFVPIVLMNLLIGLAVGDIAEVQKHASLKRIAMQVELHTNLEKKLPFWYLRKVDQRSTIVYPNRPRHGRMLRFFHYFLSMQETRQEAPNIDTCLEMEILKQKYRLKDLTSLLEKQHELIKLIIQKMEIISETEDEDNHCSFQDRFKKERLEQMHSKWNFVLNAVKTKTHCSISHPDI
Method: as §1

[8] = test system: DAF-16/FOXO; assay: DAF-16::GFP nuclear localization; type: in vivo, Caenorhabditis elegans; details: 7 mM MGO vs water; heat shock positive control
Method: FIG. 11, panels A-E, SKN-1/Nrf2 activation due to exogenous MGO treatment and specificity of downstream response to a-DC stress. Related to FIG. 3. (A) Quantification (left) and fluorescence microscopy images (right) of GFP foci in gst-4p::gfp animals reared on empty vector (EV, L4440) or skn-1 RNAi supplemented with water (control) or 7 mM MGO. Foci are marked by white arrows. n=91. Scale bar 0.15 mm. […] Animals were categorized as follows: ‘high’ for strong GFP signal throughout the intestine, ‘medium’ for GFP signal in the anterior or posterior section of the intestine and ‘low’ for weak or no signal. n=100. (C) qPCR analysis of SKN-1 target genes, gst-4 and gcs-1 in N2 animals reared on EV or skn-1 RNAi supplemented with water (control, −) or 7 mM MGO (+). The data is normalized to the corresponding expression levels in N2 (EV, water), represented by the dotted line. (D) Fluorescence microscopy images depicting nuclear localization of DAF-16::GFP and SKN-1::GFP supplemented with water (control) or 7 mM MGO. Heat shock was used as a positive control to drive DAF-16 nuclear localization. Red arrows point towards nuclear localized transcription factors (SKN-1 and DAF-16). Scale bar 20 pm. (E) Fluorescence microscopy images to observe GFP foci in glod-4;gst-4p::gfp animals reared on empty vector (EV, L4440), sgk-1, sek-1, or pmk-1 RNAi. Scale bar 20 pm.

Structure (SMILES): O=C(O)CCCCC1CCSS1 (stereo not drawn) [LA, a-lipoic acid]
- Effect on diabetic complications [1]: documented to ameliorate diabetic complications

Structure (SMILES): CC(=O)C=O [MGO, methylglyoxal]
- glod-4p::gfp reporter expression (GFP intensity) [2]: trpa-1- and skn-1 -dependent increase in expression
- Ca2+ flux (Rhod-3 AM fluorescence ratio 555/484 nm) [3]: induce a similar Ca^2+ flux
- Motility (number of body bends in liquid media) [4]: lower motility
- Ca2+ flux in native HEK293T cells (Rhod-3 AM) [5]: neither compounds resulted in Ca^+2 flux
- Neuronal damage ([6]; unc-33p::gfp, day 4 of adulthood, 7 mM MGO vs water): neuronal damage
- Ca2+ flux (Rhod-3 AM fluorescence ratio 555/484 nm) [7]: induce a similar Ca^2+ flux
- DAF-16/FOXO nuclear localization [8]: failed to trigger

Structure (SMILES): C[C@]1(C(=O)O)CCC[C@]2(C)c3cc(O)ccc3CC[C@@H]12 [PA, podocarpic acid]
- Neuronal damage ([6]; unc-33p::gfp on glod-4 RNAi, day 10 of adulthood, PA (20 pM) vs EtOH control): prevent the prominent neuronal damages
